Results: US20100249413A1, “STABILIZED PHARMACEUTICAL COMPOSITION” (priority 2006, published 2010)

Key:
[1] = system: cancer proliferation; details: reported in Patent Document 1; cited from earlier work
[2] = reported in Patent Document 1; cited from earlier work
[3] = bulk material, reported in Patent Document 2; cited from earlier work
[4] = bulk material, reported in Patent Document 2; cited from earlier work; remark: listed apart in the source
[5] = Light stability of compound A solution with various stabilizers: photolyzed substances by HPLC (Experimental Example 1); type: physicochemical; details: compound A drug solution 5 mg/mL, D65 lamp/1000 lux, 24 hours, room temperature
Experimental: Each sample was stored upside-down under a condition of D65 lamp/1000 lux in a constantly changing room temperature for 24 hours to evaluate the stability by measuring the increased amounts of photolyzed substances. The measurement of photolyzed substances was carried out using HPLC.
Mobile phase (liquid A): 0.1% trifluoroacetic acid aqueous solution/acetonitrile=9:2, (liquid B) acetonitirle, gradient % (capacity) B: 0% (0 to 60 min)/linear 75% (60 to 80 min)/linear 0% (80 to 100 min), column:TSK-gel ODS-80TsQA, 4.6×150 mm, particle diameter 5 μm (produced by Tosoh Corp.), flow rate: 1 mL/min, column temperature: 40° C., detection: UV 270 nm.

Row | SMILES | cancer proliferation-inhibitory activity in vivo [1] | toxicity [2] | hygroscopicity [3] | storage stability (humidity, long-term storage) [4] | Photolyzed Substance Amount (%) [5] [%]
1 | COCCn1c2c([n+](Cc3cnccn3)c1C)C(=O)c1ccccc1C2=O.[Cl-] [chloride of compound A, 1-(2-methoxyethyl)-2-methyl-4,9-dioxo-3-(pyrazin-2-ylmethyl)-4,9-dihydro-1H-naphtho[2,3-d]imidazol-3-ium chloride] | excellent cancer proliferation-inhibitory activity in vivo | low in toxicity | has hygroscopicity | unstable to humidity | 
2 | COCCn1c2c([n+](Cc3cnccn3)c1C)C(=O)c1ccccc1C2=O [compound A, 1-(2-methoxyethyl)-2-methyl-4,9-dioxo-3-(pyrazin-2-ylmethyl)-4,9-dihydro-1H-naphtho[2,3-d]imidazol-3-ium] |  |  |  |  | 3.4
